The experiment addresses T1, CD209 antigen (Homo sapiens, UniProt Q9NNX6).
T1 sequence (Q9NNX6 whole entry): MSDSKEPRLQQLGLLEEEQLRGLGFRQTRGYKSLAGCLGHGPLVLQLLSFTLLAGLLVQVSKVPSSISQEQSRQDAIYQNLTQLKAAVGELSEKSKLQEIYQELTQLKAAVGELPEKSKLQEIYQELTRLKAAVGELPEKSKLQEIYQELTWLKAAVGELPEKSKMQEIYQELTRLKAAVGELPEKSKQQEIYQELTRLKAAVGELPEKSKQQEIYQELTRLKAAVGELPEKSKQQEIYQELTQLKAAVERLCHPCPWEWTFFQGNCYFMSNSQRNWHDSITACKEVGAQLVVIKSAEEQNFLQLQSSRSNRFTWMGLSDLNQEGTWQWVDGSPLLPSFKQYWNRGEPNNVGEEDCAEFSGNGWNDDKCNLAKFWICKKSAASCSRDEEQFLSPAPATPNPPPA
As to the kind of experiment: Binding affinity to DC-SIGN (unknown origin).

Usually Kd stands for the constant that tells how readily two partners part at equilibrium. Read a low Kd as higher affinity. In turn, `CC(=O)N[C@H](C=O)[C@@H](O)[C@H](O)[C@H](O)CO` had a Kd of 8.7 mM. The value for `C[C@H](O)[C@@H](O)[C@@H](O)[C@H](O)C=O` [L-FUCOSE] was 6.7 mM.

(Values after ChEMBL document CHEMBL3132751, “Crafting precise multivalent architectures” (Medchemcomm, 2013).)
